# Laboratory results: patent US11207331B2, “Agents, compositions and methods for enhancing neurological function” (University of Southern California, priority 2007, dated 2021)
# Tested on: hippocampal neural cells
# Assay: 3H-thymidine uptake in cultured hippocampal neural cells
# Assay type: cell-based, rat
# Details: 24 hours, 37° C.
# Method: Biochemical analyses of 3H-thymidine uptake, as a measure of DNA synthesis, were used as the experimental vehicle to confirm the morphological observations described in examples 1 and 2. […] Thus, the range for the neurogenic effect of THP on neural cells is quite is sensitive and quite broad.
# For these experiments, cultured hippocampal neural cells, derived from embryonic day 18 rat fetuses, were allowed to adhere to polylysine coated plastic cover-slips for 40 min in serum containing medium. Following adhesion, neurons were exposed to […] 3H-thymidine in the presence or absence of 100-500 nM THP and allowed to incubate at 37° C. for 24 hours in the absence or presence of the indicated steroids. Data are expressed as mean+SEM, *p<. 05,**p<0.01, ***p<0.001.
# The time course of THP-induced 3H-thymidine incorporation in hippocampal neuronal cells is shown in FIG. 9 where cultured hippocampal nerve cells, derived from embryonic day 18 rat fetuses, were allowed to adhere to polylysine coated plastic cover-slips for 40 min in serum containing medium. Following adhesion, serum containing medium in the presence or absence of 10-250 nM THP plus […] 3H-thymidine and allowed to incubate at 37 for 1, 8 or 24 hours. Data are expressed as mean±SEM, *p<0.05,**p<0.01,***p<0.001.
row,Compound,effect on 3H-thymidine incorporation (steroid specificity)
1,"5α,3α-pregnan-diol",significant decrease
2,"5α,3α-pregnan-triol",significant decrease
3,"5α, 3P-pregnen-3-one",no effect
4,"CC(=O)[C@H]1CC[C@H]2[C@@H]3CC[C@H]4C[C@@H](O)CC[C@]4(C)[C@H]3CC[C@]12C [5cc, 3ss-THP]",no effect
5,"CC(=O)[C@H]1CC[C@H]2[C@@H]3CC[C@@H]4C[C@@H](O)CC[C@]4(C)[C@H]3CC[C@]12C [5ss, 3ss-THP]",no effect
6,CC(=O)[C@H]1CC[C@H]2[C@@H]3CCC4=CC(=O)CC[C@]4(C)[C@H]3CC[C@]12C [Progesterone],modest increase
7,pregnenolone sulfate,significant decrease
